Our source for the EC30 values is patent US10758534B2 (Vertex Pharmaceuticals Incorporated, priority 2014, dated 2020).

T1 sequence (P13569 with tags, fused parts or gaps DEL508-508): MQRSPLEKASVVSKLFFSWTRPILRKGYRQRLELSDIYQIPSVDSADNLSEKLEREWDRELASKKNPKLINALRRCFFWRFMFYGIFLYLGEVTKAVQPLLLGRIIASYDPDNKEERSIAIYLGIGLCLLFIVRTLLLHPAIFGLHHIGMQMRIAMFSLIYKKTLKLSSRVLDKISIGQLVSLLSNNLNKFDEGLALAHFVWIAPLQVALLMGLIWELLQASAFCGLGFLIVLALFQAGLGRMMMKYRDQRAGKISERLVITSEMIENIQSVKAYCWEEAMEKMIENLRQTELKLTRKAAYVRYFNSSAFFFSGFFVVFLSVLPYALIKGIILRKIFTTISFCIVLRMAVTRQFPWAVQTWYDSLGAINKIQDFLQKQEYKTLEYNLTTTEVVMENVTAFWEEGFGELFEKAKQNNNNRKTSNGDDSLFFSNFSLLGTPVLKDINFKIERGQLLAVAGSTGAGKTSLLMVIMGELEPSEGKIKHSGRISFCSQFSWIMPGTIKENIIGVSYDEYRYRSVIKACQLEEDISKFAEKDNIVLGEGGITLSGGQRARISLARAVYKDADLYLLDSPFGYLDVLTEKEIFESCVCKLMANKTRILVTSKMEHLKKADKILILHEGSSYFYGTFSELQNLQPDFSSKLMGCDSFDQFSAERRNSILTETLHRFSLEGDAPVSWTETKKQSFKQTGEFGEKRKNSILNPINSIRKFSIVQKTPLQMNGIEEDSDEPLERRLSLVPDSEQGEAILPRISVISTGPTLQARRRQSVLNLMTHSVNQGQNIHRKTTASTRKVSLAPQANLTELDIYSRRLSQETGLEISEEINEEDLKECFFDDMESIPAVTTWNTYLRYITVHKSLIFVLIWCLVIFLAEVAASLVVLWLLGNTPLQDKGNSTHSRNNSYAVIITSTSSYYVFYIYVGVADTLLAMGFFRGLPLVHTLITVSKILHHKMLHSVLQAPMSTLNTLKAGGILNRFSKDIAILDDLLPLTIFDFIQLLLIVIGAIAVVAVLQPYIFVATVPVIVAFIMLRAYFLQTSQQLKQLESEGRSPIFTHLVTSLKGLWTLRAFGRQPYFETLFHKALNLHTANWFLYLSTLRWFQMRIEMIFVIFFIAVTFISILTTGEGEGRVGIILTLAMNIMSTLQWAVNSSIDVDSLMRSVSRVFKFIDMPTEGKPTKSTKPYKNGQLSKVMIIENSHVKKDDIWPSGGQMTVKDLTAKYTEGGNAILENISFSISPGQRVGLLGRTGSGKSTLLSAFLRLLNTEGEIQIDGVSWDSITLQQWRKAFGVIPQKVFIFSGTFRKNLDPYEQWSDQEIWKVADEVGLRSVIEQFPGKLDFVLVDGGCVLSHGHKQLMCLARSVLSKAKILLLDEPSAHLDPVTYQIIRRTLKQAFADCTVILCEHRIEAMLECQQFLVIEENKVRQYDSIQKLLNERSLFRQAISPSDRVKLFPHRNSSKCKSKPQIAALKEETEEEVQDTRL

This assay addresses T1, F508del (Homo sapiens, UniProt P13569, DEL508-508).
T1 construct: expressed in transfected cells
Description: Protocol 1: membrane potential optical assay (FLIPR III, voltage sensing dye), identification of potentiator compounds. Type of assay: cell-based. As to conditions: Table 3, compounds of Table 1. The method in brief:
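Gating potentiation is read as a membrane-potential fluorescence change (FLIPR III, voltage-sensing dye) after one forskolin addition under a Cl− gradient, with gluconate replacing chloride, pH 7.4. Cells are F508del-expressing NIH3T3 mouse fibroblasts held 24 h at 27 °C and exposed to compound before dye loading.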
On to `CC(C)COc1cc(F)cc(-c2ccc(C(=O)NS(=O)(=O)c3cccc(N)n3)c(N3CCC(Cc4ccccc4)C3C)n2)c1` (stereo not drawn) [Compound 969, N-[(6-amino-2-pyridyl)sulfonyl]-2-(3-benzyl-2-methyl-pyrrolidin-1-yl)-6-(3-fluoro-5-isobutoxy-phenyl)pyridine-3-carboxamide], for which the EC30 result was “+++ (“+++” means <3 uM)”.

Regarding `CC1(Cn2nc(C(C)(C)C)cc2C(=O)NS(=O)(=O)c2cccc(N)c2)CCCCC1` [Compound 1152, N-(3-aminophenyl)sulfonyl-5-tert-butyl-2-[(1-methylcyclohexyl)methyl]pyrazole-3-carboxamide], the EC30 result is reported as “+ (“+” means greater than 10 uM)”. The value for `C[C@@H]1CN(c2nc(-n3ccc(OCC(C)(C)C)n3)ccc2C(=O)NS(=O)(=O)c2cccc(N)n2)C(C)(C)C1` [Compound 1952, N-[(6-amino-2-pyridyl)sulfonyl]-6-[3-(2,2-dimethylpropoxy)pyrazol-1-yl]-2-[(4S)-2,2,4-trimethylpyrrolidin-1-yl]pyridine-3-carboxamide] was “+++ (“+++” means <3 uM)”; that for `CCc1ccc(-c2ccc(C(=O)NS(=O)(=O)c3ccc[nH]c3=O)c(Oc3c(C)cc(C)cc3C)n2)cc1` [Compound 831, 6-(4-ethylphenyl)-N-[(2-oxo-1H-pyridin-3-yl)sulfonyl]-2-(2,4,6-trimethylphenoxy)pyridine-3-carboxamide] was “+++ (“+++” means <3 uM)”; that for `CC(C)COc1cc(F)cc(-c2ccc(C(=O)NS(=O)(=O)c3ccn[nH]3)c(N3CCCC3Cc3ccccc3)n2)c1` (stereo not drawn) [Compound 1257, 2-(2-benzylpyrrolidin-1-yl)-6-(3-fluoro-5-isobutoxy-phenyl)-N-(1H-pyrazol-5-ylsulfonyl)pyridine-3-carboxamide] was “++ (“++” means between 3 uM and 10 uM)”. Regarding `CC(C)COc1cc(F)cc(-c2ccc(C(=O)NS(=O)(=O)N3CC4C[C@H]3CO4)c(N3C[C@@H](C)CC3(C)C)n2)c1` [Compound 1789, 6-(3-fluoro-5-isobutoxy-phenyl)-N—[[(4S)-2-oxa-5-azabicyclo[2.2.1]heptan-5-yl]sulfonyl]-2-[(4S)-2,2,4-trimethylpyrrolidin-1-yl]pyridine-3-carboxamide], the EC30 result was “+++ (“+++” means <3 uM)”.

In the case of `CC1CN(c2ncc(-c3cccc(C(F)(F)F)c3)cc2C(=O)NS(=O)(=O)c2cccc(N)n2)C(C)(C)C1` (stereo not drawn) [Compound 1950, N-[(6-amino-2-pyridyl)sulfonyl]-5-[3-(trifluoromethyl)phenyl]-2-(2,2,4-trimethylpyrrolidin-1-yl)pyridine-3-carboxamide], the EC30 entry is “+++ (“+++” means <3 uM)”. Turning to `CC1CCN(c2nc3c(cc2C(=O)NS(=O)(=O)c2ccc[nH]c2=O)CCCC3(C)C)CC1` [Compound 1195, 8,8-dimethyl-2-(4-methyl-1-piperidyl)-N-[(2-oxo-1H-pyridin-3-yl)sulfonyl]-6,7-dihydro-5H-quinoline-3-carboxamide], the EC30 result was “+ (“+” means greater than 10 uM)”. Consider `CCOc1cccc2c1CN(Cc1c(C)cc(C)cc1C)[C@@]2(C)C(=O)NS(=O)(=O)c1ccc[nH]c1=O` [Compound 1476, (1R)-4-ethoxy-1-methyl-N-[(2-oxo-1H-pyridin-3-yl)sulfonyl]-2-[(2,4,6-trimethylphenyl)methyl]isoindoline-1-carboxamide], for which the EC30 entry is listed as “+++ (“+++” means <3 uM)”. `CC1CN(c2ncccc2C(=O)NS(=O)(=O)c2cccc(NC3CCC(C(C)(C)C)CC3)n2)C(C)(C)C1` (stereo not drawn) [Compound 1971, N—[[6-[(4-tert-butylcyclohexyl)amino]-2-pyridyl]sulfonyl]-2-(2,2,4-trimethylpyrrolidin-1-yl)pyridine-3-carboxamide]: the EC30 entry is “+++ (“+++” means <3 uM)”. To `C[C@@H]1CN(c2nc(C3CCCCO3)ccc2C(=O)NS(=O)(=O)c2cccc(N)n2)C(C)(C)C1` (stereo partly drawn) [Compound 1500, N-[(6-amino-2-pyridyl)sulfonyl]-6-tetrahydropyran-2-yl-2-[(4S)-2,2,4-trimethylpyrrolidin-1-yl]pyridine-3-carboxamide] belongs “+++ (“+++” means <3 uM)”; to `Cc1cc(C)c(Oc2nc(-c3ccc(CN)cc3)ccc2C(=O)NS(=O)(=O)c2cccc(N)n2)c(C)c1` [Compound 1228, 6-[4-(aminomethyl)phenyl]-N-[(6-amino-2-pyridyl)sulfonyl]-2-(2,4,6-trimethylphenoxy)pyridine-3-carboxamide], “++ (“++” means between 3 uM and 10 uM)”; to `COc1ccc(-c2ccc(C(=O)NS(=O)(=O)c3cccnc3N)c(N3C[C@@H](C)CC3(C)C)n2)cc1F` [Compound 1851, N-[(2-amino-3-pyridyl)sulfonyl]-6-(3-fluoro-4-methoxy-phenyl)-2-[(4S)-2,2,4-trimethylpyrrolidin-1-yl]pyridine-3-carboxamide], “+++ (“+++” means <3 uM)”. To `Cc1cc(C)c(Oc2nc(C(C)(C)C)ccc2C(=O)NS(=O)(=O)c2csc(N)n2)c(C)c1` [Compound 1294, N-(2-aminothiazol-4-yl)sulfonyl-6-tert-butyl-2-(2,4,6-trimethylphenoxy)pyridine-3-carboxamide] belongs “+++ (“+++” means <3 uM)”; to `CCc1cccc(S(=O)(=O)NC(=O)c2cc(C(C)(C)C)nn2Cc2c(C)cc(C)cc2C)c1` [Compound 823, 5-tert-butyl-N-(3-ethylphenyl)sulfonyl-2-[(2,4,6-trimethylphenyl)methyl]pyrazole-3-carboxamide], “+ (“+” means greater than 10 uM)”; to `Cc1cc(C)c(Oc2nc(-c3ccc(C(C)C)cc3)ccc2C(=O)NS(=O)(=O)c2ccc[nH]c2=O)c(C)c1` [Compound 1002, 6-(4-isopropylphenyl)-N-[(2-oxo-1H-pyridin-3-yl)sulfonyl]-2-(2,4,6-trimethylphenoxy)pyridine-3-carboxamide], “+++ (“+++” means <3 uM)”. To `Cc1cc(OC(C)C)nc(-c2ccc(C(=O)NS(=O)(=O)c3cccc(N)n3)c(N3C[C@@H](C)CC3(C)C)n2)c1` [Compound 1637, N-[(6-amino-2-pyridyl)sulfonyl]-6-(6-isopropoxy-4-methyl-2-pyridyl)-2-[(4S)-2,2,4-trimethylpyrrolidin-1-yl]pyridine-3-carboxamide] belongs “+++ (“+++” means <3 uM)”; to `Cc1cc(C)c(Oc2nc(-c3ccc(CO)cc3)ccc2C(=O)NS(=O)(=O)c2cccc(N)n2)c(C)c1` [Compound 1183, N-[(6-amino-2-pyridyl)sulfonyl]-6-[4-(hydroxymethyl)phenyl]-2-(2,4,6-trimethylphenoxy)pyridine-3-carboxamide], “+ (“+” means greater than 10 uM)”. As to `Cc1cc(C)c(Oc2nc(-c3cc(F)cc(OC(C)C)c3)ccc2C(=O)NS(=O)(=O)c2cc[nH]n2)c(C)c1` [Compound 914, 6-(3-fluoro-5-isopropoxy-phenyl)-N-(1H-pyrazol-3-ylsulfonyl)-2-(2,4,6-trimethylphenoxy)pyridine-3-carboxamide], the EC30 entry is “+++ (“+++” means <3 uM)”. The value for `CCOc1ccc(-c2ccc(C(=O)NS(=O)(=O)c3cccnc3N)c(N3C[C@@H](C)CC3(C)C)n2)cc1C` [Compound 1860, N-[(2-amino-3-pyridyl)sulfonyl]-6-(4-ethoxy-3-methyl-phenyl)-2-[(4S)-2,2,4-trimethylpyrrolidin-1-yl]pyridine-3-carboxamide] was “+++ (“+++” means <3 uM)”; that for `Cc1cc(Cl)cc(-c2cnc(N3CC(C)CC3(C)C)c(C(=O)NS(=O)(=O)c3cccc(N)n3)c2)c1` (stereo not drawn) [Compound 1963, N-[(6-amino-2-pyridyl)sulfonyl]-5-(3-chloro-5-methyl-phenyl)-2-(2,2,4-trimethylpyrrolidin-1-yl)pyridine-3-carboxamide] was “+++ (“+++” means <3 uM)”. On to `C[C@@H]1CN(c2nc(-c3cccc(OC(F)(F)F)c3)ccc2C(=O)NS(=O)(=O)c2ccc[nH]c2=O)C(C)(C)C1` [Compound 1934, N-[(2-oxo-1H-pyridin-3-yl)sulfonyl]-6-[3-(trifluoromethoxy)phenyl]-2-[(4S)-2,2,4-trimethylpyrrolidin-1-yl]pyridine-3-carboxamide], for which the EC30 result is given as “+++ (“+++” means <3 uM)”. To `C[C@@H]1CN(c2nc(C3=CC(C)(C)CCC3=O)ccc2C(=O)NS(=O)(=O)c2cccc(N)n2)C(C)(C)C1` [Compound 1462, N-[(6-amino-2-pyridyl)sulfonyl]-6-(3,3-dimethyl-6-oxo-cyclohexen-1-yl)-2-[(4S)-2,2,4-trimethylpyrrolidin-1-yl]pyridine-3-carboxamide] belongs “+++ (“+++” means <3 uM)”.

As for `Cc1cc(C)c(Oc2nc(C3=CCCCC3)ccc2C(=O)NS(=O)(=O)c2ccc[nH]c2=O)c(C)c1` [Compound 882, 6-(cyclohexen-1-yl)-N-[(2-oxo-1H-pyridin-3-yl)sulfonyl]-2-(2,4,6-trimethylphenoxy)pyridine-3-carboxamide], the EC30 result is “+++ (“+++” means <3 uM)”.

Take `CC(C)c1ccc(-c2ccc(C(=O)NS(=O)(=O)c3cccc(N)n3)c(N3C[C@H](C)CC3(C)C)n2)cc1` [Compound 890, N-[(6-amino-2-pyridyl)sulfonyl]-6-(4-isopropylphenyl)-2-[(4R)-2,2,4-trimethylpyrrolidin-1-yl]pyridine-3-carboxamide]: the EC30 entry is “+++ (“+++” means <3 uM)”. The value for `CC(C)Oc1ccc(-c2ccc(C(=O)NS(=O)(=O)c3cccnc3N)c(N3[C@H](C)CC[C@@H]3C)n2)cn1` [Compound 1316, N-[(2-amino-3-pyridyl)sulfonyl]-2-[(2S,5R)-2,5-dimethylpyrrolidin-1-yl]-6-(6-isopropoxy-3-pyridyl)pyridine-3-carboxamide] was “+++ (“+++” means <3 uM)”; that for `CC1CN(c2ncccc2C(=O)NS(=O)(=O)c2cccc(Nc3cccc(Cl)c3)n2)C(C)(C)C1` (stereo not drawn) [Compound 1841, N—[[6-(3-chloroanilino)-2-pyridyl]sulfonyl]-2-(2,2,4-trimethylpyrrolidin-1-yl)pyridine-3-carboxamide] was “+++ (“+++” means <3 uM)”.
